As usually defined, the GI50 is the concentration giving 50% growth inhibition. The TGI is the concentration giving total growth inhibition. A low value points to greater sensitivity of the cells.

Values joined by “and” are separate entries in the source; they are usually repeats but may differ in a detail not shown here. Equal entries are not always repeated.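 Five concentrations, 48 hours, 96-well plates. Here, GI50 denotes the concentration required for 50% inhibition of growth. TGI denotes the concentration required for complete inhibition of growth.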

What all share (assay): DTP human tumour cell line panel, 48 h
Test [1] concerns A498 renal.
The subject of test [2] is A549 NSCLC.
Test [3] has as its system HOP-62 NSCLC.
For test [4], the system named is K-562 leukemia.
The subject of test [5] is NCI-H460 lung.
In test [6] the test system is OVCAR-8 ovarian.
Test [7] relates to SN12C renal.
The subject of test [8] is SNB-19 CNS.
The test system of test [9] is SNB-75 CNS.
Test [10] relates to SW-620 colon.

Take `COc1cc(C(=O)c2cc(C)c3[nH]c4ccc(O)cc4c3c2C)cc(OC)c1OC`: the GI50 in test [1] is under 0.01 µM; in test [2], 0.0191 µM; in [3], 0.0297 µM; in [4], under 0.01 µM; in test [5], under 0.0185 µM; in [6] it was 0.0317 µM. The GI50 in [7] is 0.0415 µM; in [8], 0.0289 µM; in test [9], under 0.01 µM; in test [10], under 0.0129 µM. Also, the TGI in test [1] is under 0.0189 µM; in [2], over 100 µM; in test [3] it was over 70.9 µM; in test [4], over 100 µM; in test [5] it was over 100 µM; in test [6], over 100 µM. Further, the TGI in test [7] was over 100 µM; in [8], over 47.3 µM; in [9] it was 8.71 µM; in test [10] it was over 100 µM.

Consider `N#CC1(C#N)C(c2ccccc2)C=CC12OCCCO2` (stereo not given), for which the TGI in test [1] is over 100 µM; in test [2], over 100 µM; in [3] it was over 100 µM; in test [4], over 100 µM; in test [5], over 100 µM; in test [6], 43 µM. The TGI in test [7], in test [8], in test [9] and in [10] was over 100 µM each time.

For `Clc1ccc(C2ON=C(c3ccccc3)N2C23CC4CC(CC(C4)C2)C3)cc1` (stereo not given), the TGI in [1], in test [2], in [3], in test [4], in [5] and in test [6] was over 10 µM throughout. In addition, the TGI in test [7], in [8], in test [9] and in test [10] was over 10 µM each time.

For the molecule `CCc1c(C)nc2sc3c(N)ncnc3c2c1C`, the GI50 in test [1], in [2], in [3], in [4], in test [5] and in [6] was over 25 µM each time. Moreover, the GI50 in test [7], in test [8], in [9] and in [10] was over 25 µM throughout. Also, the TGI in test [1], in [2], in test [3], in test [4], in test [5] and in test [6] was over 25 µM in each case. The TGI in test [7], in [8], in [9] and in [10] was over 25 µM throughout.

`Cc1ccncc1C(N)=O`: the GI50 in [1], in test [2], in test [3], in [4], in test [5] and in [6] was over 100 µM each time. For the same molecule, the GI50 in test [7], in [8], in test [9] and in test [10] was over 100 µM each time. Also, the TGI in test [1], in [2], in [3], in test [4], in test [5] and in test [6] was over 100 µM throughout. Besides, the TGI in test [7], in test [8], in [9] and in [10] was over 100 µM each time.

In the case of `COc1ccc(Nc2ccnc(N3CCN(c4ccnc5cc(Cl)ccc45)CC3)n2)cc1`, the GI50 in test [1] was 0.342 µM; in test [2], 1.47 µM; in [3], 1.27 µM; in [4], 0.444 µM; in test [5], 0.837 µM; in test [6] it was 1.68 µM. For the same molecule, the GI50 in test [7] is 1.67 µM; in test [8], 1.48 µM; in test [9] it was 1.4 µM; in test [10], 0.739 µM. The TGI in test [1] is 4.17 µM; in test [2], over 100 µM; in test [3], over 29 µM; in test [4], over 20.8 µM; in [5], 4.68 µM; in [6], over 21.7 µM. Further, the TGI in [7] was over 100 µM; in test [8] it was over 100 µM; in test [9], 4.82 µM; in test [10], over 73.1 µM.

With `Fc1cccc(F)c1C(Nc1nncs1)Nc1nncs1`, the TGI in test [1], in test [2], in test [3], in test [4], in test [5] and in [6] was over 100 µM throughout. Moreover, the TGI in test [7], in test [8], in test [9] and in [10] was over 100 µM throughout.

For the molecule `CCOc1ccc(NC(=O)CCc2nnc(SC)o2)cc1`, the TGI in test [1], in [2], in test [3], in test [4], in test [5] and in test [6] was over 100 µM in each case. For the same molecule, the TGI in [7], in test [8], in test [9] and in test [10] was over 100 µM in each case.

Turning to `N#CCCNc1nonc1-c1nc2ccccc2n1CC(=O)c1ccc(NC(=O)[C@@H](N)CCCCN)cc1`, the GI50 in test [1] is 0.0154 µM; in [2], 0.0463 µM; in [3], 0.0562 µM; in test [4] it was 0.0322 µM; in [5] it was 0.0344 µM; in [6] it was 0.0554 µM. In addition, the GI50 is 0.0498 µM in test [7], over 100 µM in [8], 0.0106 µM in test [9] and 0.0443 µM in [10]. Besides, the TGI in test [1] was 1.89 µM; in test [2], over 100 µM; in test [3], over 100 µM; in test [4], over 100 µM; in test [5], over 100 µM; in test [6] it was over 100 µM. For the same molecule, the TGI in test [7], in test [8], in test [9] and in test [10] was over 100 µM each time.

Take `COc1ccc(-c2[nH]c3ccccc3c2CCNS(=O)(=O)c2ccc(C)cc2)cc1`: the TGI in [1], in [2], in test [3], in test [4], in test [5] and in test [6] was over 10 µM each time. Moreover, the TGI in test [7], in [8], in test [9] and in test [10] was over 10 µM throughout.

Take `O=C(/C=C/c1ccc(Cl)c(Cl)c1)c1cccc2ccccc12`: the TGI was 38 µM in [1]; 45.2 µM in test [2]; 31.4 µM in test [3]; 11.2 µM in test [4]; 19.3 µM in test [5]; 4.74 µM in [6]. In addition, the concentration for total growth inhibition (TGI) in test [7] is 31.8 µM; in test [8] it was 19.4 µM; in test [9] it was 14 µM; in test [10] it was 3.08 µM.

As to `COc1cc(/C=C/c2ccc3c(Br)cc(Br)c(O)c3n2)ccc1O`, the GI50 in test [1] was 9.43 µM; in test [2] it was 1.21 µM; in [3] it was 1.51 µM; in test [4] it was 0.441 µM; in [5], 0.446 µM; in test [6] it was 2.14 µM. Further, the GI50 in test [7] is 2 µM; in test [8], 2.67 µM; in test [9] it was 2.5 µM; in test [10] it was 2.24 µM. Moreover, the TGI turned out to be 21.8 µM in test [1]; 12.9 µM in test [2]; 8.07 µM in [3]; 10.5 µM in test [4]; 11.5 µM in [5]; 15.5 µM in test [6]. For the same molecule, the TGI in test [7] was determined as 17.9 µM; in [8] it was 15.2 µM; in test [9] it was 10.1 µM; in [10] it was 13 µM.

Turning to `CN=C1OC2(c3ccccc3)C3=C(OC(=NC)N2C)C(=O)OC3(c2ccccc2)N1C` (stereo not given), the TGI in test [1], in test [2], in test [3], in test [4], in test [5] and in test [6] was over 100 µM in each case. The TGI in test [7], in [8], in test [9] and in test [10] was over 100 µM throughout.

As to `FC(F)(F)c1cccc(-c2nn3ncccc3c2-c2ccnc(Nc3ccc4c(c3)OCCO4)n2)c1`, the GI50 was 9.59 µM in test [1]; 12.8 µM in test [2]; over 25 µM in test [3]; 8.75 µM in [4]; 11.1 µM in test [5]; 10.6 µM in test [6]. The GI50 in test [7] was 11.7 µM; in [8], over 25 µM; in [9] it was over 18.6 µM; in test [10], 9.68 µM. Besides, the TGI in [1], in [2], in test [3], in [4], in [5] and in [6] was over 25 µM in each case. For the same molecule, the TGI in test [7], in test [8], in [9] and in test [10] was over 25 µM throughout.

As for `CSc1ccc(C2=NN(C(C)=O)C(c3ccc(-c4ccc(Cl)cc4)o3)C2)cc1` (stereo not given), the GI50 in test [1] was 26 µM; in [2], 35.2 µM; in test [3], 42.4 µM; in test [4] it was 31.5 µM; in [5], 40 µM; in [6] it was 81.7 µM. The GI50 was 21.7 µM in [7], over 100 µM in test [8], 25.4 µM in test [9] and 77.7 µM in [10]. The TGI in test [1] was 48 µM; in test [2], over 100 µM; in [3], over 100 µM; in [4], over 100 µM; in test [5] it was over 100 µM; in [6] it was over 100 µM. Also, the TGI is 40.6 µM in test [7], over 100 µM in test [8], over 100 µM in test [9] and over 100 µM in test [10].

In the case of `COc1ccc(/C=C(/C)[N+](=O)[O-])cc1OC`, the GI50 in test [1] was 5.13 µM and 4.73 µM; in test [2], 6.05 µM and 4.13 µM; in test [3], 2.03 µM and 4.17 µM; in test [4] it was 1.31 µM and 1.72 µM; in [5], 2.78 µM and 3.14 µM; in [6], 2.62 µM and 3.22 µM. Also, the GI50 in test [7] was 2.35 µM and 2.18 µM; in test [8] it was 6.82 µM and 3.16 µM; in test [9], 4.71 µM and 3.76 µM; in test [10], 1.56 µM and 1.1 µM. Further, the total growth inhibition concentration (TGI) in test [1] is 17.2 µM and 16.6 µM; in [2] it was 19.7 µM and 17.7 µM; in [3], 4.36 µM and 14.8 µM; in test [4] it was over 100 µM; in test [5] it was 7.78 µM and 9.48 µM; in test [6], 8 µM and 10 µM. Besides, the TGI in test [7] is 6.07 µM and 5.77 µM; in test [8] it was 20 µM and 12.6 µM; in test [9], 18 µM and 13.9 µM; in [10], 3.04 µM and 2.7 µM.

Regarding `CC1c2ccccc2CCN1c1ccc(CO)c(Cl)c1` (stereo not given), the GI50 was 0.0149 µM in test [1]; 0.759 µM in test [2]; 1.67 µM in test [3]; 0.385 µM in test [4]; 0.0864 µM in [5]; 5.77 µM in test [6]. In addition, the GI50 in test [7] was 15.3 µM; in test [8] it was 34.5 µM; in test [9] it was 20 µM; in test [10] it was 0.203 µM. The TGI in [1] was 0.0888 µM; in test [2], 17.1 µM; in test [3], 25.3 µM; in [4] it was over 100 µM; in [5], 3.3 µM; in test [6], 52.6 µM. The TGI in test [7] was over 57 µM; in test [8] it was over 100 µM; in test [9], 75 µM; in test [10] it was over 100 µM.

For the molecule `CNNC(=NS(=O)(=O)c1cc(C#N)c(NNC)cc1S)NNC`, the TGI in test [1], in test [2], in test [3], in test [4], in test [5] and in test [6] was over 10 µM each time. In addition, the TGI in [7], in [8], in test [9] and in [10] was over 10 µM each time.

For `N#CCN1C(=O)c2cc([N+](=O)[O-])cc3cc([N+](=O)[O-])cc(c23)C1=O`, the TGI in test [1] is over 100 µM; in [2], 43.8 µM; in [3], 41.9 µM; in test [4], 33.4 µM; in test [5], 45.9 µM; in test [6], 56.4 µM. For the same molecule, the TGI in test [7] was 27.9 µM; in [8], over 100 µM; in test [9], 84.8 µM; in [10], 20.3 µM.

The record behind these values is PubChem BioAssay (NCI).
